Assays:
[1] = target: T1, Human CD73 (amino acid residues 27-549) (Homo sapiens, UniProt P21589); test: CD73 enzymatic assay (luciferase-based indirect assay, CellTiter-Glo); assay type: biochemical; settings: 0.4 nM CD73, 150 μM AMP, 1 hour at room temperature
T1 construct: Human CD73 (amino acid residues 27-549); His tag (N); made in house; host or cells: E. coli
T1 sequence (P21589 27-549): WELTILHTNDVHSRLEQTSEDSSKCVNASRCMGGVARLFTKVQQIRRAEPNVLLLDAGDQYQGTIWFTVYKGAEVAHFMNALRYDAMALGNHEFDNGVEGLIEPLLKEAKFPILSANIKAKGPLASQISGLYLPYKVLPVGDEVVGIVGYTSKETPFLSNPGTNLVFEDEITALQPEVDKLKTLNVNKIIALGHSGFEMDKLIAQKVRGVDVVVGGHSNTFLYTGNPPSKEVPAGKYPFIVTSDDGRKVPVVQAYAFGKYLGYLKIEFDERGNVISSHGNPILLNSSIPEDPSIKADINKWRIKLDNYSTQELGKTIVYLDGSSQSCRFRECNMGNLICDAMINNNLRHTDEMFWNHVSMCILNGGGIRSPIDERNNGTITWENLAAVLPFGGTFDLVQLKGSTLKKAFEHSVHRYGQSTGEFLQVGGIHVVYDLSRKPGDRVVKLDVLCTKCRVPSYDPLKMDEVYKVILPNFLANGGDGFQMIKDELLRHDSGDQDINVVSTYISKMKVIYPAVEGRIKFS
How it was run: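 His-tagged human CD73 (27-549) from E. coli, 0.4 nM, with 150 μM AMP in 50 mM HEPES pH 7.4, 0.01% Tween 20; 1 h at room temperature. AMP remaining read by CellTiter-Glo 2.0 luminescence with 1 μM final ATP after 30 min. IC50 from nonlinear regression of % inhibition.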

[2] = target: T2, human CD73 (Homo sapiens, UniProt P21589); test: Inhibitor activity against CD73 in cell based assay (CD73 expressing CHO-K1 cells); settings: CHO-K1 cells expressing human CD73, 150 μM AMP, 4 hours of incubation; read-out: CHO-K1 CELL VARIANT: CD73 IC50
T2 construct: expressed in transfected cells
T2 sequence (P21589 27-549): T1 sequence (P21589 27-549)
How it was run: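 Stably transfected CHO-K1 cells expressing human CD73 (1×10^4/well) incubated 4 h with compound (8-point 1:3 titration, top 10 μM final, 0.2% DMSO) and 150 μM AMP. Residual AMP in supernatant measured by CellTiter-Glo luminescence with 1 μM ATP after 30 min at room temperature; IC50 by nonlinear regression of percent inhibition vs high/low controls.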

`O=C(NC1CCc2[nH]ncc2C1)O[C@@H]1CCN(c2cn[nH]c(=O)c2Cl)C1` (stereo partly drawn) [P-0207, (R)-1-(5-chloro-6-oxo-1,6-dihydropyridazin-4-yl)pyrrolidin-3-yl (4,5,6,7-tetrahydro-1H-indazol-5-yl)carbamate] was tested, and the IC50 [1] was 0.001 to 10 µM and the IC50 [2] was 0.001 to 10 µM.

For `CN1CC(NC(=O)O[C@@H]2CCN(c3cn[nH]c(=O)c3Cl)C2)CC1=O` (stereo partly drawn) [P-0208, (R)-1-(5-chloro-6-oxo-1,6-dihydropyridazin-4-yl)pyrrolidin-3-yl (1-methyl-5-oxopyrrolidin-3-yl)carbamate], the IC50 [1] was 0.001 to 10 µM and the IC50 [2] was 0.001 to 10 µM.

Work on `CCCN1CC(NC(=O)O[C@@H]2CCN(c3cn[nH]c(=O)c3Cl)C2)CC1=O` (stereo partly drawn) [P-0209, (R)-1-(5-chloro-6-oxo-1,6-dihydropyridazin-4-yl)pyrrolidin-3-yl (5-oxo-1-propylpyrrolidin-3-yl)carbamate] yielded an IC50 [1] of 0.001 to 10 µM and an IC50 [2] of 0.001 to 10 µM.

`Cn1ncc(N2CC[C@@H](OC(=O)N[C@H]3CC[C@@H](C)CC3)C2)c(Cl)c1=O` [P-0210, (R)-1-(5-chloro-1-methyl-6-oxo-1,6-dihydropyridazin-4-yl)pyrrolidin-3-yl ((1s,4S)-4-methylcyclohexyl)carbamate] showed an IC50 [1] of 0.001 to 10 µM and an IC50 [2] of 0.001 to 10 µM.

`Cn1ncc(N2CC[C@@H](OC(=O)N[C@H]3CC[C@@H](NC(=O)c4ccccc4)CC3)C2)c(Cl)c1=O` [P-0211, (R)-1-(5-chloro-1-methyl-6-oxo-1,6-dihydropyridazin-4-yl)pyrrolidin-3-yl ((1s,4S)-4-benzamidocyclohexyl) carbamate] was tested, and the IC50 [1] was 0.001 to 10 µM and the IC50 [2] was 0.001 to 10 µM.

`O=C(NC1CC2(C1)CN(S(=O)(=O)c1ccc(F)cc1)C2)O[C@@H]1CCN(c2cn[nH]c(=O)c2Cl)C1` [P-0212, (R)-1-(5-chloro-6-oxo-1,6-dihydropyridazin-4-yl)pyrrolidin-3-yl (2-((4-fluorophenyl)sulfonyl)-2-azaspiro[3.3]heptan-6-yl)carbamate] was tested, and the IC50 [1] was 0.001 to 10 µM and the IC50 [2] was 0.001 to 10 µM.

With `O=CNC1CC2(C1)CC(NC(=O)O[C@@H]1CCN(c3cn[nH]c(=O)c3Cl)C1)C2` (stereo partly drawn) [P-0213, (R)-1-(5-chloro-6-oxo-1,6-dihydropyridazin-4-yl)pyrrolidin-3-yl (6-formamidospiro[3.3]heptan-2-yl)carbamate] the IC50 [1] was 0.001 to 10 µM and the IC50 [2] was 0.001 to 10 µM.

`O=C(Nc1ccc(F)cc1)NC1CC2(C1)CC(NC(=O)O[C@@H]1CCN(c3cn[nH]c(=O)c3Cl)C1)C2` (stereo partly drawn) [P-0214, (R)-1-(5-chloro-6-oxo-1,6-dihydropyridazin-4-yl)pyrrolidin-3-yl (6-(3-(4-fluorophenyl)ureido)spiro[3.3]heptan-2-yl)carbamate] showed an IC50 [1] of 0.001 to 10 µM and an IC50 [2] of 0.001 to 10 µM.

In the case of `CCC(CC)NC(=O)O[C@@H]1CCN(c2cn[nH]c(=O)c2Cl)C1` [P-0215, (R)-1-(5-chloro-6-oxo-1,6-dihydropyridazin-4-yl)pyrrolidin-3-yl pentan-3-ylcarbamate], the IC50 [1] is reported as 0.001 to 10 µM and the IC50 [2] is reported as 0.001 to 10 µM.

For `Cn1ncc(N2CC[C@@H](OC(=O)N[C@H]3CC[C@H](NS(=O)(=O)c4ccc(F)cc4)CC3)C2)c(Cl)c1=O` [P-0216, (R)-1-(5-chloro-1-methyl-6-oxo-1,6-dihydropyridazin-4-yl)pyrrolidin-3-yl ((1r,4R)-4-((4-fluorophenyl)sulfonamido)cyclohexyl)carbamate], the IC50 [1] was 0.001 to 10 µM and the IC50 [2] was 0.001 to 10 µM.

`Cn1ncc(N2CC[C@@H](OC(=O)N[C@H]3CC[C@H](NC(=O)c4ccccc4)CC3)C2)c(Cl)c1=O` [P-0217, (R)-1-(5-chloro-1-methyl-6-oxo-1,6-dihydropyridazin-4-yl)pyrrolidin-3-yl ((1r,4R)-4-benzamidocyclohexyl) carbamate] was tested, and the IC50 [1] was 0.001 to 10 µM and the IC50 [2] was 0.001 to 10 µM.

In the case of `Cn1ncc(N2CC[C@@H](OC(=O)N[C@H]3CC[C@H](NS(=O)(=O)NC4CCCC4)CC3)C2)c(Cl)c1=O` [P-0218, (R)-1-(5-chloro-1-methyl-6-oxo-1,6-dihydropyridazin-4-yl)pyrrolidin-3-yl ((1r,4R)-4-((N-cyclopentylsulfamoyl)amino)cyclohexyl)carbamate], the IC50 [1] is reported as 0.001 to 10 µM and the IC50 [2] is reported as 0.001 to 10 µM.

`CC(C)(C)c1nnc(NC(=O)O[C@@H]2CCN(c3cn[nH]c(=O)c3Cl)C2)s1` [P-0219, (R)-1-(5-chloro-6-oxo-1,6-dihydropyridazin-4-yl)pyrrolidin-3-yl (5-(tert-butyl)-1,3,4-thiadiazol-2-yl)carbamate] gave an IC50 [1] of 10 to 100 µM and an IC50 [2] of 10 to 100 µM.

Compound `Cc1cc(NC(=O)O[C@@H]2CCN(c3cn[nH]c(=O)c3Cl)C2)no1` [P-0220, (R)-1-(5-chloro-6-oxo-1,6-dihydropyridazin-4-yl)pyrrolidin-3-yl (5-methylisoxazol-3-yl)carbamate] has an IC50 [1] of 0.001 to 10 µM and an IC50 [2] of 0.001 to 10 µM.

With `Cc1nc(NC(=O)O[C@@H]2CCN(c3cn[nH]c(=O)c3Cl)C2)sc1C` [P-0221, (R)-1-(5-chloro-6-oxo-1,6-dihydropyridazin-4-yl)pyrrolidin-3-yl (4,5-dimethylthiazol-2-yl)carbamate] the IC50 [1] was 10 to 100 µM and the IC50 [2] was 10 to 100 µM.

Compound `Cn1cc(NC(=O)O[C@@H]2CCN(c3cn[nH]c(=O)c3Cl)C2)cn1` [P-0222, (R)-1-(5-chloro-6-oxo-1,6-dihydropyridazin-4-yl)pyrrolidin-3-yl (1-methyl-1H-pyrazol-4-yl)carbamate] has an IC50 [1] of 0.001 to 10 µM and an IC50 [2] of 10 to 100 µM.

Compound `O=C(NCc1cc(C2CC2)[nH]n1)O[C@@H]1CCN(c2cn[nH]c(=O)c2Cl)C1` [P-0223, (R)-1-(5-chloro-6-oxo-1,6-dihydropyridazin-4-yl)pyrrolidin-3-yl ((5-cyclopropyl-1H-pyrazol-3-yl)methyl)carbamate] has an IC50 [1] of 10 to 100 µM and an IC50 [2] of 10 to 100 µM.

`O=C(Nc1cnn2cccnc12)O[C@@H]1CCN(c2cn[nH]c(=O)c2Cl)C1` [P-0224, (R)-1-(5-chloro-6-oxo-1,6-dihydropyridazin-4-yl)pyrrolidin-3-yl pyrazolo[1,5-a]pyrimidin-3-ylcarbamate] was tested, and the IC50 [1] was 0.001 to 10 µM and the IC50 [2] was 10 to 100 µM.

Compound `O=C(Nc1ncco1)O[C@@H]1CCN(c2cn[nH]c(=O)c2Cl)C1` [P-0225, (R)-1-(5-chloro-6-oxo-1,6-dihydropyridazin-4-yl)pyrrolidin-3-yl oxazol-2-ylcarbamate] has an IC50 [1] of 0.001 to 10 µM and an IC50 [2] of 10 to 100 µM.

For `CCn1cc(S(=O)(=O)N[C@H]2CC[C@H](NC(=O)O[C@@H]3CCN(c4cnn(C)c(=O)c4Cl)C3)CC2)cn1` [P-0226, (R)-1-(5-chloro-1-methyl-6-oxo-1,6-dihydropyridazin-4-yl)pyrrolidin-3-yl ((1r,4R)-4-((1-ethyl-1H-pyrazole)-4-sulfonamido)cyclohexyl) carbamate], the IC50 [1] was 0.001 to 10 µM and the IC50 [2] was 0.001 to 10 µM.

With `Cn1ncc(N2CC[C@@H](OC(=O)N[C@H]3CC[C@H](NS(=O)(=O)C4CC4)CC3)C2)c(Cl)c1=O` [P-0227, (R)-1-(5-chloro-1-methyl-6-oxo-1,6-dihydropyridazin-4-yl)pyrrolidin-3-yl ((1r,4R)-4-(cyclopropanesulfonamido)cyclohexyl)carbamate] the IC50 [1] was 0.001 to 10 µM and the IC50 [2] was 0.001 to 10 µM.

With `Cn1ncc(N2CC[C@@H](OC(=O)N[C@H]3CC[C@H](NS(=O)(=O)C4CCCC4)CC3)C2)c(Cl)c1=O` [P-0228, (R)-1-(5-chloro-1-methyl-6-oxo-1,6-dihydropyridazin-4-yl)pyrrolidin-3-yl ((1r,4R)-4-(cyclopentanesulfonamido)cyclohexyl)carbamate] the IC50 [1] was 0.001 to 10 µM and the IC50 [2] was 0.001 to 10 µM.

`C[C@]1(O)CC[C@H](NC(=O)O[C@@H]2CCN(c3cn[nH]c(=O)c3Cl)C2)CC1` [P-0229, (R)-1-(5-chloro-6-oxo-1,6-dihydropyridazin-4-yl)pyrrolidin-3-yl ((1r,4R)-4-hydroxy-4-methylcyclohexyl)carbamate] gave an IC50 [1] of 0.001 to 10 µM and an IC50 [2] of 0.001 to 10 µM.

In the case of `CO[C@H]1CC[C@H](NC(=O)O[C@@H]2CCN(c3cn[nH]c(=O)c3Cl)C2)CC1` [P-0230, (R)-1-(5-chloro-6-oxo-1,6-dihydropyridazin-4-yl)pyrrolidin-3-yl ((1r,4R)-4-methoxycyclohexyl)carbamate], the IC50 [1] is reported as 0.001 to 10 µM and the IC50 [2] is reported as 0.001 to 10 µM.

`CO[C@H]1CC[C@@H](NC(=O)O[C@@H]2CCN(c3cn[nH]c(=O)c3Cl)C2)CC1` [P-0231, (R)-1-(5-chloro-6-oxo-1,6-dihydropyridazin-4-yl)pyrrolidin-3-yl ((1s,4S)-4-methoxycyclohexyl)carbamate] gave an IC50 [1] of 0.001 to 10 µM and an IC50 [2] of 0.001 to 10 µM.

`O=C(NCC1CCS(=O)(=O)CC1)O[C@@H]1CCN(c2cn[nH]c(=O)c2Cl)C1` [P-0232, (R)-1-(5-chloro-6-oxo-1,6-dihydropyridazin-4-yl)pyrrolidin-3-yl ((1,1-dioxidotetrahydro-2H-thiopyran-4-yl)methyl)carbamate] gave an IC50 [1] of 0.001 to 10 µM and an IC50 [2] of 0.001 to 10 µM.

Source: patent US12509444B2, “Compounds and methods for CD73 modulation and indications therefor” (Plexxikon Inc., priority 2019, dated 2025)
